Data published in EP1808169B1, “Polyhydroxylated aromatic compounds for the treatment of amyloidosis and alpha-synuclein fibril diseases” (priority 1999, dated 2001).

Key:
Aβ 1-40 amyloid fibrils [1] = experiment: Thioflavin T fluorometry: dose-dependent disassembly/disruption of pre-formed Aβ 1-40 fibrils; format: biochemical; details: 25 µM pre-fibrillized Aβ 1-40, overnight (~18 hours) at 37°C
Source text: A previously described method of measuring amyloid fibril formation utilizing Thioflavin T fluorometry (H Naiki et al., Lab. Invest. 65:104-110, 1991; H Levine III, Protein Sci. 2:404-410, 1993; H Levine III, Amyloid: Int. J. Exp. Clin. Invest. 2:1-6, 1995; H Naiki and K. Nakakuki, Lab. Invest. 74:374-383, 1996) was employed to identify potential therapeutic compounds capable of causing a disassembly/disruption of Alzheimer's Aβ 1-42 amyloid fibrils. Thioflavin T is known to bind to fibrillar amyloid proteins, and an increase in fluorescence correlates with an increase in amyloid fibril formation, whereas a decrease in fluorescence correlates with a decrease in amyloid fibrils due to disassembly and/or disruption. The Alzheimer's Aβ protein (1-42) when placed in solution, such as distilled water, tends to spontaneously form amyloid fibrils. Using this sensitive assay, any decreases or increases in fluorescence was previously shown to correlate with a decrease or increase in the amount of amyloid fibrils (see the documents cited above), allowing one to identify and quantitate the extent of potential inhibitors and/or enhancers of Alzheimer's Aβ 1-42 amyloid fibrils.
To assess the effects of each compound on potential disassembly/ disruption of preformed Aβ 1-42 fibrils, 50 µl of Aβ 1-42 with or without test compounds (described above) were added to 1.2 ml of 100µM Thioflavin T (Sigma) in 50mM NaH2PO4 (pH 6.0) for fluorometry readings. […] Fluorescence emission at 482 nm was measured on a Turner instrument-model 450 fluorometer at an excitation wavelength of 450 nm. For each determination, the fluorometer was calibrated by zeroing in the presence of the Thioflavin T reagent alone, and by setting the 50 ng/ml riboflavin (Sigma Chemical Co., St. Louis, MO) in the Thioflavin T reagent to 1800 fluorescence units. All fluorescence determinations were based on these references and any fluorescence given off by any of the compounds in the presence of the Thioflavin T reagent was always subtracted from all pertinent readings.
For all fibrillogenesis studies utilizing Thioflavin T fluorometry, as disclosed herein, comparisons of amyloid protein in the presence or absence of test compounds were based on paired Student's t tests with data shown as the mean of triplicate measurements ± standard deviation.
In this study, the potential dose-dependent effects of tannic acid and gallic acid on disassembly/ disruption of pre-formed Aβ 1-40 was assessed. In this experiment, 1 mg of Aβ 1-40 (Bachem Inc., Torrance, CA, USA; Lot # T-20824) was dissolved in 1.0 ml of double distilled water (1 mg/ml solution) and incubated for 4 days at 37°C to spontaneously induce fibril formation. 25 µM of pre-fibrillized Aβ 1-40 was then incubated overnight (~18 hours) at 37°C, in the absence or presence of increasing amounts (25µg/ml, 50µg/ml, 75µg/ml and 100µg/ml) of tannic acid or gallic acid (each in the presence of 150 mM Tris HCl, 10 mM NaCl, pH 7.0, with 0.02% sodium azide). The Aβ:compound weight ratios were therefore 4:1, 2:1, 4:3, and 1:1, respectively, 50 µl aliquots were then added to 1.2 ml of 100µM Thioflavin T (Sigma) in 50mM NaH2PO4 (pH 6.0) for fluorometry readings as described in Example 1 above.

Aβ 1-40 amyloid fibrils [2] = experiment: Modified Congo red-Aβ spectrophotometric assay: dose-dependent disaggregation of fibrillized Aβ 1-40 (overnight incubation); format: biochemical; details: overnight (~18 hours) at 37°C
Experimental: In this study, a Congo red-Aβ spectrophotometric assay (Klunk et al., Anal. Biochem. 266:66-76, 1999) was modified to determine the effectiveness of polyhydroxylated aromatic compounds on the disaggregation of pre-formed Aβ 1-40 amyloid fibrils. For this assay, 1 mg of Aβ 1-40 (Bachem) was incubated for 4 days in distilled water at 37°C to spontaneously produce amyloid fibrils. 25pM of fibrillized Aβ 1-40 was then incubated in triplicate with various test compounds for 3 days at 37°C in Tris-buffered saline (TBS)(100 mM Tris; 50 mM NaCl; pH 7.0, with 0.02% sodium azide), at an Aβ:compound weight ratio of 2:1. Following incubation, 50µl of 360 µM Congo red (Sigma) in distilled water was then added to 250 µl of each incubation mixture, giving a final Aβ:Congo red molar ratio of 1:3. After 10 minutes, the absorbance at 405 nm (reference wavelength to account for the absorbance of Congo red alone at 540 nm) and 540 nm (sample absorbance where "sample" refers to Aβ alone, test compound alone, or Aβ plus test compound, all in the presence of Congo red) was determined using a Biorad Model 550 BLISA Plate Reader (Biorad, Hercules, CA, USA). The absorbance at wavelength 405 nm was automatically subtracted by the ELISA plate reader from the absorbance at wavelength 540 nm (difference is referred to as Δ absorbance)(see Klunk et al. cited above). Therefore, the Δ absorbance reading at 540 nm was proportional to the amount of aggregated Aβ left in solution (Klunk et al.).
For all experiments involving test compounds, the Δ absorbance reading at 540 nm of the test compound alone (in the absence of Aβ), was always subtracted from the corresponding Δ absorbance reading at 540 nm of the test compound in the presence of Aβ. Using this modification of the method of Klunk et al., the use of a greater final concentration of Congo red, i.e. 60µM instead of 14µM, in the presence of fibrillar Aβ gave an overall absorbance at 540 nm that was always below 1.0 Absorbance Unit (AU), and well within the linear absorbance range.
In this study, the potential dose-dependent effects of tannic acid and gallic acid on the disaggregation of fibrillized Aβ 1-40 was assessed. In this experiment, the modified Congo red-Aβ spectrophotometric assay (Klunk et al, Anal. Biochem. 266:66-76, 1999) was used as described above (i.e. Example 4). However, in this specific experiment increasing amounts of tannic acid or gallic acid (i.e. 25µg/ml, 50µg/ml, 75µg/ml and 100µg/ml) were tested following an overnight (~18 hours) incubation at 37°C in the presence of 25pM of Aβ 1.40 (Bachem).

[3] = Aβ:compound w/w ratio 1:1 (100µg/ml compound)
[4] = Aβ:compound w/w ratio 2:1 (50µg/ml compound)
[5] = Aβ:compound w/w ratio 4:1 (25µg/ml compound)
[6] = Aβ:compound w/w ratio 4:3 (75µg/ml compound)
[7] = w/w ratio 2:1 (50µg/ml compound)
[8] = w/w ratio 4:1 (25µg/ml compound)
[9] = w/w ratio 4:3 (75µg/ml compound)

SMILES	Fluorescence inhibition, %, at the Aβ 1.40:compound w/wratios given (Aβ 1-40 amyloid fibrils [1]; [3]) [%]	Fluorescence inhibition, %, at the Aβ 1.40:compound w/wratios given (Aβ 1-40 amyloid fibrils [1]; [4]) [%]	Fluorescence inhibition, %, at the Aβ 1.40:compound w/wratios given (Aβ 1-40 amyloid fibrils [1]; [5]) [%]	Fluorescence inhibition, %, at the Aβ 1.40:compound w/wratios given (Aβ 1-40 amyloid fibrils [1]; [6]) [%]	Decrease in absorbance, %, at the Aβ 1-40:compound w/w ratios given (Aβ 1-40 amyloid fibrils [2]; [7]) [%]	Decrease in absorbance, %, at the Aβ 1-40:compound w/w ratios given (Aβ 1-40 amyloid fibrils [2]; [8]) [%]	Decrease in absorbance, %, at the Aβ 1-40:compound w/w ratios given (Aβ 1-40 amyloid fibrils [2]; [9]) [%]	Decrease in absorbance, %, at the Aβ 1-40:compound w/w ratios given (Aβ 1-40 amyloid fibrils [2]; w/w ratio 1:1 (100µg/ml compound)) [%]
O=C(O)c1cc(O)c(O)c(O)c1 [Gallic acid, gallic acid]	45 ± 4.1	22 ± 3.3	14 ± 8.2	34 ± 3.6	22 ± 4.0	17 ± 9.5	30 ± 6.0	–
O=C(OC[C@H]1O[C@@H](OC(=O)c2cc(O)c(O)c(OC(=O)c3cc(O)c(O)c(O)c3)c2)[C@H](OC(=O)c2cc(O)c(O)c(OC(=O)c3cc(O)c(O)c(O)c3)c2)[C@@H](OC(=O)c2cc(O)c(O)c(OC(=O)c3cc(O)c(O)c(O)c3)c2)[C@@H]1OC(=O)c1cc(O)c(O)c(OC(=O)c2cc(O)c(O)c(O)c2)c1)c1cc(O)c(O)c(OC(=O)c2cc(O)c(O)c(O)c2)c1 [Tannic acid, tannic acid]	53 ± 4.2	42 ± 2.8	31 ± 4.8	49 ± 3.7	48 ± 6.8	42 ± 5.2	59 ± 6.4	61 ± 11.1
